Data published in US20230108442A1, “NOVEL ANTIMALARIAL AGENT CONTAINING HETEROCYCLIC COMPOUND” (Eisai R&D Management Co., Ltd., priority 2020, published 2023).
pIC50: −log10 of the molar value. Where “and” joins values, the source holds several entries; their conditions need not be identical. Equal entries are not always repeated.

Legend:
[1] = tested on: Plasmodium falciparum strain K1 (chloroquine-resistant); assay: in vitro drug susceptibility test, parasite lactate dehydrogenase detection, strain K1; type: cell-based; conditions: 72 hours incubation, pLDH absorbance at 660 nm, read-out: Pf_K1 IC50
Experimental: (§1) Plasmodium falciparum strain 3D7 (chloroquine-sensitive) and K1 (chloroquine-resistant) were obtained from Kitasato University and used for testing antimalarial activities in vitro. The cultivation of P. falciparum was conducted according to Trager's method (Trager, W and Jensen and J., Human malaria parasites in continuous culture. Science, 193:673-677, 1976) with some modification. Precisely, parasites were kept in culture flasks with RPMI1640 medium supplemented with 10% human plasma and 2% fresh human erythrocytes and incubated at 37° C. with the gas condition of 5% CO2 and 5% 02. The parasitemia (percentage of infected erythrocytes to total erythrocytes) were kept within 0.25-10%. Culture medium were replaced and fresh erythrocytes were supplied every 2-3 days. Drug susceptibility test was conducted according to Desjardins's method (Desjardins, R. E., Canfield, C. J., Haynes, D. E. and Chulay, J. D., Quantitative assessment of antimalarial activity in vitro by a semiautomated microdilution technique. Antimicrob. Agents Chemother., 16:710-718, 1979) with some modification. The compounds I to IX and known antimalarial agents (chloroquine and artemisinin) were tested at the same time. Precisely, 199 micro L of parasite cultures (2% hematocrit and 0.75-1% parasitemia) and 1 micro L of compound solution serially diluted in DMSO were poured into every well in 96-well titer plates and final drug concentrations were set within 0.001-1 micro g/mL. The plates were kept at 37° C. with the gas condition of 5% CO2 and 5% O2 for 72 hours and then parasite growth was quantified with Makler's method to detect plasmodial lactate dehydrogenase (Makler, M. T., Rise, J. M., Williams, J. A., Bancroft, J. E., Piper, R. C., Gibbins, B. L. and Hinrichs, D. J., Parasite lactate dehydrogenase as an Assay for Plasmodium falciparum drug sensitivity. Am. J. Med. Hyg., 48:739-741, 1993) with some modification. Precisely, culture plate was kept in freezer overnight and then thawed at 37° C. to disrupt the erythrocytes and parasite cells. In the new 96-well titer plates, 100 micro L of enzyme reaction solution (110 mM Li-lactate, 0.5 mM acetylpyridine-adenine dinucleotide, 50 mM Tris (pH 7.5), 10 mM EDTA, 50 mM KCl and 15 g/L PEG6000) and 20 micro L of freeze-thaw culture were mixed in each well and then kept at room temperature for 30 minutes. The detection solution was prepared by mixing equal volume of 2 mg/mL nitro blue tetrazolium and 0.1 mg/mL phenazine ethosulfate and 20 micro L of the solution was added to each well. After the incubation at room temperature in the dark for 90 minutes, absorbance at 660 nm was analysed and IC50s were calculated from dose response curve.

[2] = tested on: Plasmodium falciparum strain 3D7 (chloroquine-sensitive); assay: in vitro drug susceptibility test, parasite lactate dehydrogenase detection, strain 3D7; type: cell-based; conditions: 72 hours incubation, pLDH absorbance at 660 nm, read-out: Pf_3D7 IC50
Experimental: as §1

[3] = tested on: Plasmodium falciparum Pf3D70087/N9; assay: humanized murine malaria model, parasitemia by flow cytometry; type: in vivo; conditions: oral, once daily for three days (I, V) or four days (II), start 72 h post infection, read seven days post infection
Experimental: The following pharmacological tests in the humanized murine malaria model were conducted using the compounds I, II and V at The Art of Discovery S.L. (Bizkaia, Spain). Briefly, mice engrafted with human erythrocytes were intravenously infected with parasitized red blood cells 72 h before drug treatment inception. The effect of treatment on parasitemia was assessed by measuring the percentage of infected erythrocytes in peripheral blood.
Plasmodium falciparum Pf3D70087/N9, the parasite strain used in this experiment, was described in reference (1). Immunodeficient female NSG (NOD-scid IL-2Rγnull) mice were engrafted with human erythrocytes to have a minimum of 40% of human erythrocytes circulating in peripheral blood during the whole experiment. Each mouse was intraperitoneally (i.p.) or intravenously (i.v.) inoculated with 1 mL (i.p.) or 0.7 mL (i.v.) of 50%-75% hematocrit erythrocyte suspension in RPMI1640 medium, 25% (vol/vol) decomplemented human serum, 3.1 mM hypoxanthine. Then humanized NSG mice were infected with peripheral blood from donor mice by intravenous injection of 0.3 mL of 1.17×10^8 parasitized-erythrocytes per ml suspension. Drug treatment was started after 72-h post infection. In the treatment, 10 ml/kg of compound solution were orally administered to each mouse, once daily for three or four days (three days for compounds I and V, four days for compound II, respectively). An analysis of the parasite population in peripheral blood was performed by flow cytometry as shown in reference (2) and the outcome was shown as the parasitemia expressed as the % of parasitized erythrocytes to the total erythrocytes in peripheral blood. Briefly, serial 2 micro L blood samples of peripheral blood from infected mice were stained with TER-119-Phycoerythrine (marker of murine erythrocytes) and SYTO-16 (nucleic acid dye) and then analyzed by flow cytometry. The therapeutic efficacies were expressed as ED90, the daily doses that reduce by 90% parasitemia to untreated control animals after seven days post infection.

IC50 [1] | IC50 [2] | pIC50 [2] | Structure (SMILES) | ED90, daily dose that reduces parasitemia by 90% to untreated control animals [3] [mg/kg/day]
0.121 µg/mL and 249 nM | 0.078 µg/mL and 162 nM | – | Cc1nn(C(F)F)cc1-c1cc(C(=O)NCc2ccc(O[C@H](C)C(F)(F)F)cc2)c(N)nc1N [III, (R)-2,6-diamino-5-(1-(difluoromethyl)-3-methyl-1H-pyrazol-4-yl)-N-(4-((1,1,1-trifluoropropan-2-yl)oxy)benzyl)nicotinamide] | –
0.038 µg/mL and 75 nM | 0.024 µg/mL and 48 nM | – | C[C@@H](Oc1ccc(CNC(=O)c2cc(-n3cnc(CC(F)(F)F)n3)c(N)nc2N)cc1)C(F)(F)F [VI, (R)-2,6-diamino-5-(3-(2,2,2-trifluoroethyl)-1H-1,2,4-triazol-1-yl)-N-(4-((1,1,1-trifluoropropan-2-yl)oxy)benzyl)nicotinamide] | –
0.031 µg/mL and 171 nM | – | 6.90 | Nc1nc(N)c(-n2cnc(C(F)(F)F)n2)cc1C(=O)NCc1ccc(OCC(F)(F)F)cc1 [IV, 2,6-diamino-N-(4-(2,2,2-trifluoroethoxy)benzyl)-5-(3-(trifluoromethyl)-1H-1,2,4-triazol-1-yl)nicotinamide] | –
0.031 µg/mL and 64 nM | 0.02 µg/mL and 54 nM | – | C[C@@H](Oc1ccc(CNC(=O)c2cc(-n3cnc(C4(F)CC4)n3)c(N)nc2N)cc1)C(F)(F)F [VIII, (R)-2,6-diamino-5-(3-(1-fluorocyclopropyl)-1H-1,2,4-triazol-1-yl)-N-(4-((1,1,1-trifluoropropan-2-yl)oxy)benzyl)nicotinamide] | –
0.083 µg/mL and 160 nM | 0.05 µg/mL and 113 nM | – | Nc1nc(N)c(-c2cnn(C(F)F)c2)cc1C(=O)NCc1ccc(OCC(F)(F)F)cc1F [IX, 2,6-diamino-5-(1-(difluoromethyl)-1H-pyrazol-4-yl)-N-(2-fluoro-4-(2,2,2-trifluoroethoxy)benzyl)nicotinamide] | –
0.021 µg/mL and 41 nM | 0.016 µg/mL and 30 nM | – | Nc1nc(N)c(-n2cnc(C3(C(F)(F)F)CC3)n2)cc1C(=O)NCc1ccc(OCC(F)(F)F)cc1 [VII, 2,6-diamino-N-(4-(2,2,2-trifluoroethoxy)benzyl)-5-(3-(1-(trifluoromethyl)cyclopropyl)-1H-1,2,4-triazol-1-yl)nicotinamide] | –

Structure (SMILES) | IC50 [1] | IC50 [2] | pIC50 [2] | ED90, daily dose that reduces parasitemia by 90% to untreated control animals [3] [mg/kg/day]
C[C@@H](Oc1ccc(CNC(=O)c2cc(-c3cnn(C(F)F)c3)c(N)nc2N)cc1)C(F)(F)F [compound II, (R)-2,6-diamino-5-(1-(difluoromethyl)-1H-pyrazol-4-yl)-N-(4-((1,1,1-trifluoropropan-2-yl)oxy)benzyl)nicotinamide] | 0.025 µg/mL and 53 nM | 0.02 µg/mL and 42 nM | – | 5.0
C[C@@H](Oc1ccc(CNC(=O)c2cc(-n3cnc(C(F)(F)F)n3)c(N)nc2N)cc1)C(F)(F)F [compound I, (R)-2,6-diamino-5-(3-(trifluoromethyl)-1H-1,2,4-triazol-1-yl)-N-(4-((1,1,1-trifluoropropan-2-yl)oxy)benzyl)nicotinamide] | 0.043 µg/mL and 30 nM | 0.026 µg/mL | – | 3.2
C[C@@H](Oc1ccc(CNC(=O)c2cc(-n3cnc(C(F)F)n3)c(N)nc2N)cc1)C(F)(F)F [V, (R)-2,6-diamino-5-(3-(difluoromethyl)-1H-1,2,4-triazol-1-yl)-N-(4-((1,1,1-trifluoropropan-2-yl)oxy)benzyl)nicotinamide] | 0.075 µg/mL and 160 nM | 0.047 µg/mL and 99 nM | – | 6.2
